Assay results from patent publication US9895338B1, “Cobalt-polypyridyl complex for treatment of cancer, a pharmaceutical composition and a kit comprising it” (Macau University of Science and Technology, priority 2016, dated 2018).

How the values were obtained:
[1] = test system: HeLa cells (cervical cancer); assay: MTT cytotoxicity assay, HeLa; format: cell-based; details: 72 h
Protocol: (§1) All prepared cobalt-polypyridyl complexes were dissolved in DMSO at a final concentration of 50 mmol/L and stored at −20° C. before use. Cytotoxicity was assessed by using the 3-(4,5-dimethylthiazol-2-yl)-2,5-diphenyltetrazolium bromide (MTT) (5.0 mg/ml) assay as previously described (Wong, V. K. et al., Cell Death Dis, 2013, 4, e720). Briefly, 4×10^3 cells per well were seeded in 96-well plates before drug treatments. After overnight culture, the cells were then exposed to different concentrations of selected compounds (0.039-100 μmol/L) for 72 h. Cells without drug treatment were used as control. Subsequently, MTT (10 μL) solution was added to each well and incubated at 37° C. for 4 h followed by the addition of 100 μL solubilization buffer (10% SDS in 0.01 mol/L HCl) and overnight incubation. A570 nm was then determined in each well on the next day. The percentage of cell viability was calculated using the following formula: Cell viability (%)=Atreated/Acontrol×100. Data were obtained from three independent experiments. Cells include HeLa cells (cervical cancer), MCF-7 (breast cancer), H1299, H1975, A549 and LLC-1 (lung cancer), HepG2 and Hep3B (liver cancer) and LO2 (normal human hepatocytes).

MCF-7 (breast cancer) = assay: MTT cytotoxicity assay, MCF-7; format: cell-based; details: MCF-7, MTT, 72 h
Protocol: as §1

H1299 (lung cancer) = assay: MTT cytotoxicity assay, H1299; format: cell-based, human; details: 72 h
Protocol: as §1

H1975 (lung cancer) = assay: MTT cytotoxicity assay, H1975; format: cell-based; details: 72 h
Protocol: as §1

A549 (lung cancer) = assay: MTT cytotoxicity assay, A549; format: cell-based; details: 72 h
Protocol: as §1

LLC-1 (lung cancer) = assay: MTT cytotoxicity assay, LLC-1; format: cell-based; details: LLC-1, MTT, 72 h
Protocol: as §1

HepG2 (liver cancer) = assay: MTT cytotoxicity assay, HepG2; format: cell-based; details: 72 h
Protocol: as §1

Hep 3B (liver cancer) = assay: MTT cytotoxicity assay, Hep3B; format: cell-based; details: 72 h
Protocol: as §1

[2] = test system: LO2 (normal human hepatocytes); assay: MTT cytotoxicity assay, LO2; format: cell-based; details: 72 h
Protocol: as §1

[3] = test system: Taxol-sensitive MCF-7 cancer cells; assay: MTT cytotoxicity, taxol-sensitive MCF-7; format: cell-based; details: MCF-7, MTT, 72 h
Protocol: as §1, with “experiments.” for “experiments. Cells include HeLa cells (cervical cancer), MCF-7 (breast cancer), H1299, H1975, A549 and LLC-1 (lung cancer), HepG2 and Hep3B (liver cancer) and LO2 (normal human hepatocytes).”

[4] = test system: Taxol-resistant MCF-7 cancer cells; assay: MTT cytotoxicity, taxol-resistant MCF-7; format: cell-based
Protocol: as §1, with “experiments.” for “experiments. Cells include HeLa cells (cervical cancer), MCF-7 (breast cancer), H1299, H1975, A549 and LLC-1 (lung cancer), HepG2 and Hep3B (liver cancer) and LO2 (normal human hepatocytes).”
(§2) All cells were obtained from the American Type Culture Collection (Rockville, Md., USA) unless otherwise specified. Immortalized wild-type and Atg7-deficient mouse embryonic fibroblasts (MEFs) were provided by Professor Masaaki Komatsu (Juntendo University, School of Medicine, Japan). Taxol-resistant types of A549, MCF-7, HCT-8 cancer cells, cisplatin-resistant SGC7901 cancer cells were purchased from KeyGEN BioTECH, China.

[5] = test system: Taxol-sensitive HCT8 cancer cells; assay: MTT cytotoxicity, taxol-sensitive HCT8; format: cell-based; details: 72 h
Protocol: as §1, with “experiments.” for “experiments. Cells include HeLa cells (cervical cancer), MCF-7 (breast cancer), H1299, H1975, A549 and LLC-1 (lung cancer), HepG2 and Hep3B (liver cancer) and LO2 (normal human hepatocytes).”

[6] = test system: Taxol-resistant HCT8 cancer cells; assay: MTT cytotoxicity, taxol-resistant HCT8; format: cell-based
Protocol: as §1, with “experiments.” for “experiments. Cells include HeLa cells (cervical cancer), MCF-7 (breast cancer), H1299, H1975, A549 and LLC-1 (lung cancer), HepG2 and Hep3B (liver cancer) and LO2 (normal human hepatocytes).”
as §2

[7] = test system: Taxol-sensitive A549 cancer cells; assay: MTT cytotoxicity, taxol-sensitive A549; format: cell-based; details: 72 h
Protocol: as §1, with “experiments.” for “experiments. Cells include HeLa cells (cervical cancer), MCF-7 (breast cancer), H1299, H1975, A549 and LLC-1 (lung cancer), HepG2 and Hep3B (liver cancer) and LO2 (normal human hepatocytes).”

[8] = test system: Taxol-resistant A549 cancer cells; assay: MTT cytotoxicity, taxol-resistant A549; format: cell-based
Protocol: as §1, with “experiments.” for “experiments. Cells include HeLa cells (cervical cancer), MCF-7 (breast cancer), H1299, H1975, A549 and LLC-1 (lung cancer), HepG2 and Hep3B (liver cancer) and LO2 (normal human hepatocytes).”
as §2

[9] = test system: cisplatin-sensitive A2780 ovarian cancer cells; assay: MTT cytotoxicity, cisplatin-sensitive A2780; format: cell-based; details: 72 h
Protocol: as §1, with “experiments.” for “experiments. Cells include HeLa cells (cervical cancer), MCF-7 (breast cancer), H1299, H1975, A549 and LLC-1 (lung cancer), HepG2 and Hep3B (liver cancer) and LO2 (normal human hepatocytes).”
(§3) Cisplatin-sensitive or -resistant A2780, OV2008 and C13 cancer cells were provided by Prof. Benjamin Tsang (Department of Obstetrics and Gynecology and Department of Cellular and Molecular Medicine, University of Ottawa, Canada). HCT116 p53^+/+ and p53^−/− isogenic human colon cancer cells were provided by Professor Bert Vogelstein (Ludwig Center at Johns Hopkins, Howard Hughes Medical Institute, USA). All media were supplemented with 10% fetal bovine serum and the antibiotics penicillin (50 U/ml) and streptomycin (50 μg/ml; Invitrogen, Paisley, Scotland, UK). All cell cultures were incubated at 37° C. in a 5% humidified CO2 incubator.

[10] = test system: cisplatin-resistant A2780 ovarian cancer cells; assay: MTT cytotoxicity, cisplatin-resistant A2780; format: cell-based
Protocol: as §1, with “experiments.” for “experiments. Cells include HeLa cells (cervical cancer), MCF-7 (breast cancer), H1299, H1975, A549 and LLC-1 (lung cancer), HepG2 and Hep3B (liver cancer) and LO2 (normal human hepatocytes).”
as §3

[11] = test system: cisplatin-sensitive SGC-7901 gastric cancer cells; assay: MTT cytotoxicity, cisplatin-sensitive SGC-7901; format: cell-based; details: SGC-7901, MTT, 72 h
Protocol: as §1, with “experiments.” for “experiments. Cells include HeLa cells (cervical cancer), MCF-7 (breast cancer), H1299, H1975, A549 and LLC-1 (lung cancer), HepG2 and Hep3B (liver cancer) and LO2 (normal human hepatocytes).”

[12] = test system: cisplatin-resistant SGC-7901 gastric cancer cells; assay: MTT cytotoxicity, cisplatin-resistant SGC-7901; format: cell-based
Protocol: as §1, with “experiments.” for “experiments. Cells include HeLa cells (cervical cancer), MCF-7 (breast cancer), H1299, H1975, A549 and LLC-1 (lung cancer), HepG2 and Hep3B (liver cancer) and LO2 (normal human hepatocytes).”
as §2

[13] = test system: OV2008 cervical cancer cells; assay: MTT cytotoxicity, OV2008 (cisplatin-sensitive); format: cell-based; details: 72 h
Protocol: as §1, with “experiments.” for “experiments. Cells include HeLa cells (cervical cancer), MCF-7 (breast cancer), H1299, H1975, A549 and LLC-1 (lung cancer), HepG2 and Hep3B (liver cancer) and LO2 (normal human hepatocytes).”
as §3

[14] = test system: OV2008/C13 cervical cancer cells; assay: MTT cytotoxicity, OV2008/C13 (cisplatin-resistant); format: cell-based
Protocol: as §1, with “experiments.” for “experiments. Cells include HeLa cells (cervical cancer), MCF-7 (breast cancer), H1299, H1975, A549 and LLC-1 (lung cancer), HepG2 and Hep3B (liver cancer) and LO2 (normal human hepatocytes).”
as §3

[15] = test system: HCT116 p53^+/+ colon cancer cells; assay: MTT cytotoxicity, HCT116 p53+/+; format: cell-based, human; details: 72 h
Protocol: as §1, with “experiments.” for “experiments. Cells include HeLa cells (cervical cancer), MCF-7 (breast cancer), H1299, H1975, A549 and LLC-1 (lung cancer), HepG2 and Hep3B (liver cancer) and LO2 (normal human hepatocytes).”
as §3

[16] = test system: HCT116 p53^−/− colon cancer cells; assay: MTT cytotoxicity, HCT116 p53-/-; format: cell-based, human
Protocol: as §1, with “experiments.” for “experiments. Cells include HeLa cells (cervical cancer), MCF-7 (breast cancer), H1299, H1975, A549 and LLC-1 (lung cancer), HepG2 and Hep3B (liver cancer) and LO2 (normal human hepatocytes).”
as §3

Atg7 wild-type MEFs = assay: Cytotoxic effect in Atg7 wild-type MEFs; format: cell-based, mouse
From the text: as §2
(§4) In addition, the protein conversion from LC3-I to LC3-II is the marker for autophagy induction. […] In order to further confirm that the cobalt complex-induced autophagy leads to its anti-cancer effect, the cytotoxic effect of the cobalt-polypyridyl complex of Formula (IV) has been examined in both autophagy-wild type and -deficient cells respectively. Therefore, both autophagy related gene (Atg) 7 wild-type and deficient mouse embryonic fibroblasts (MEFs) (Wong, V. K. et al., Cell Death Dis, 2013, 4, e720) were used in this study. […] In view of the fact that the cobalt-polypyridyl complex of Formula (IV)-mediated cytotoxicity was markedly abrogated from the failure of autophagy induction in Atg7−/− deficient cells, these findings implicated that the cobalt-polypyridyl complex of Formula (IV)-induced autophagy would ultimately led to autophagic cell death.

Atg7 deficient MEFs = assay: Cytotoxic effect in Atg7 deficient MEFs; format: cell-based, mouse
From the text: as §2, §4

Substance: [Co^II(4,4′-Me2-Bpy)3](PF6)2 [complex (III)]
- IC50 [1]: 10.1 µM
- IC50 (MCF-7 (breast cancer)): 15.4 µM
- IC50 (H1299 (lung cancer)): 3.43 µM
- IC50 (H1975 (lung cancer)): 15.4 µM
- IC50 (A549 (lung cancer)): 9.45 µM
- IC50 (LLC-1 (lung cancer)): 2.79 µM
- IC50 (HepG2 (liver cancer)): 7.39 µM
- IC50 (Hep 3B (liver cancer)): 4.06 µM
- IC50 [2]: 13.5 µM
- IC50 [3]: 4.62 µM
- IC50 ([4]; MCF-7, MTT, 72 h): 2.51 µM
- Resistant Factor ([4]; MCF-7, IC50 taxol-resistant over IC50 taxol-sensitive): 0.54
- IC50 [5]: 3.13 µM
- IC50 ([6]; HCT8, MTT, 72 h): 1.16 µM
- Resistant Factor ([6]; HCT8, IC50 taxol-resistant over IC50 taxol-sensitive): 0.37
- IC50 [7]: 9.59 µM
- IC50 ([8]; A549, MTT, 72 h): 2.37 µM
- Resistant Factor ([8]; A549, IC50 taxol-resistant over IC50 taxol-sensitive): 0.25
- IC50 [9]: 11.9 µM
- IC50 ([10]; A2780, MTT, 72 h): 11.2 µM
- Resistant Factor ([10]; A2780, cisplatin-resistant over cisplatin-sensitive): 0.94
- IC50 [11]: 11.7 µM
- IC50 ([12]; SGC-7901, MTT, 72 h): 17.6 µM
- Resistant Factor ([12]; SGC-7901, cisplatin-resistant over cisplatin-sensitive): 1.50
- IC50 [13]: 7.06 µM
- IC50 ([14]; OV2008/C13, MTT, 72 h): 15.6 µM
- Resistant Factor ([14]; OV2008/C13 over OV2008): 2.21
- IC50 [15]: 17.1 µM
- Resistant Factor ([16]; HCT116 p53^−/− over HCT116 p53^+/+): 0.52
- IC50 ([16]; MTT, 72 h): 8.89 µM
- IC50 (Atg7 wild-type MEFs): 4.84 µM
- IC50 (Atg7 deficient MEFs): 14 µM
